Results on two molecules are retold here after article PMC6131351, “Pharmacological difference between degrader and inhibitor against oncogenic BCR-ABL kinase” (Scientific Reports, 2018).

One assay addresses T1, BCR-ABL protein (Homo sapiens, UniProt P00519+P11274).
T1 construct: examined for their activity to degrade BCR-ABL in K562 cells for 6 h; BCR (fusion partner, P11274, N-terminal part); endogenous in cells; host or cells: K562
The experiment in a line: Washout experiment, BCR-ABL protein level by western blot in K562 cells. The assay is classed as cell-based. The following applies: K562, 50 times IC50 for 12 h, BCR-ABL/β-tubulin. As to the method: Cells were collected and lysed in a lysis buffer (0.5% Triton X-100, 0.01 M Tris-HCl (pH 7.5), 0.15 M NaCl, Complete Mini protease inhibitor cocktail (Roche Applied Science, Indianapolis, IL, USA) and PhosStop phosphatase inhibitor cocktail (Roche Applied Science)). Protein concentrations were measured by the BCA method (Thermo Fisher Scientific) and an equal amount of protein lysate was separated by SDS-PAGE, transferred to polyvinylidene difluoride membranes (Merck Millipore) and analyzed by western blot using an appropriate antibody. The immunoreactive proteins were visualized using Clarity Western ECL substrate (Bio-Rad, Hercules, CA, USA) and their light emission was quantified with a LAS-3000 lumino-image analyzer (Fuji, Tokyo, Japan).
Cells were seeded at a concentration of 2 × 10^6 cells per 10-cm tissue culture dish and treated with the indicated compounds for the indicated times. Then, the cells were washed three times to remove the compounds, and incubated in drug-free medium for the indicated times.
(Immunoblotting shows a protein as a band on a membrane.)

Another assay addresses T2, XIAP (BIR3) (Homo sapiens, UniProt P98170).
T2 construct: human XIAP (BIR3, Asn252-Thr356, 895-XB-050); purchased R&D Systems 895-XB-050
Nature of the assay: TR-FRET IAP/Smac peptide interaction assay, XIAP. The following applies: FITC-Smac probe, read-out: Binding affinity IC50 XIAP. On the procedure:
(§1) The TR-FRET assay was carried out using 384-well white flat-bottom plates (Greiner Bio-One) and the signal was measured using an EnVision Multilabel Plate Reader (PerkinElmer, Waltham, MA, USA). The solution in each well was excited with a laser (λ = 337 nm) reflected by a dichroic mirror (D400/D505 (Perkin Elmer) and fluorescence from terbium (Tb) and BODIPY or FITC was detected through two emission filters (CFP 486 (Perkin Elmer) for Tb and Emission 515 (Perkin Elmer) for BODIPY and FITC). The assay buffer used in this study was composed of 50 mM HEPES (pH 7.2–7.5), 10 mM MgCl2, 1 mM EGTA, 0.1 mM DTT and 0.01% (v/v) Brij^(R) 35. All assays were carried out at room temperature in triplicate or quadruplicate formats.
(§2) The half maximal inhibitory concentration (IC50) of test compounds was calculated by fitting the data with the logistic equation using GraphPad Prism 5 (GraphPad Software, Inc., La Jolla, CA, USA) or XLfit (IDBS, Guildford, UK).
(§3) His-IAP proteins (XIAP, cIAP1 or cIAP2), FITC-Smac, Tb-SA and the biotinylated anti-His antibody (Life Technologies) were mixed in the assay buffer and incubated for over 1 h at room temperature before addition to the assay plate. […] After 1 h incubation at room temperature, the TR-FRET signal was measured using the EnVision Multilabel Plate Reader. […]
For orientation: TR-FRET usually uses a lanthanide donor and a delayed reading to cut background.

For the next assay, the target named is T3, cIAP2 (BIR3) (Homo sapiens, UniProt Q13489).
T3 construct: cIAP2 (BIR3, Gln238-Ser349) proteins were expressed in E. coli; made in house; host or cells: E. coli
Nature of the assay: TR-FRET IAP/Smac peptide interaction assay, cIAP2. The following applies: FITC-Smac probe, read-out: Binding affinity IC50 cIAP2. On the procedure: as §1, §2, §3

The test system of a further assay is KU812 cells. The experiment in a line: WST cell growth inhibition, KU812. The assay is classed as cell-based. The following applies: Homo sapiens, 48 h, WST assay, means ± SD (n = 3). On the procedure: Human CML (K562 and KU812 cells), acute T-lymphoblast leukemia (MOLT-4 cell), and T cell leukemia (Jurkat cell) were cultured in Roswell Park Memorial Institute-1640 medium (Sigma-Aldrich, St. Louis, MO, USA) containing 10% fetal bovine serum (Thermo Fisher Scientific, Waltham, MA, USA) and 50 μg/ml kanamycin (Sigma-Aldrich). KU812 cells were obtained from Japanese Collection of Research Bioresources (JCRB, Osaka, Japan) Cell Bank (JCRB0104)[58].
Cell viability was determined using water-soluble tetrazolium WST-8 (4-[3-(2-methoxy-4-nitrophenyl)-2-(4-nitrophenyl)-2H-5-tetrazolio]-1,3-benzene disulfonate) for the spectrophotometric assay and conducted according to the manufacturer’s instructions (Dojindo, Tokyo, Japan). Cells were seeded at a concentration of 5 × 10^3 cells per well in a 96-well culture plate, and treated with the indicated compounds for 48 h. The WST-8 reagent was added, and the cells were incubated for 0.5 h at 37 °C in a humidified atmosphere of 5% CO2. The absorbance at 450 nm of the medium was measured using the EnVision Multilabel Plate Reader.

Another assay relates to MOLT-4 cells. The experiment in a line: WST cell growth inhibition, MOLT-4 (BCR-ABL negative). The following applies: Homo sapiens, MOLT4 cells, 48 h, WST assay, means ± SD (n = 3). The class given is cell-based.

T1 sequence (P11274+P00519 fused): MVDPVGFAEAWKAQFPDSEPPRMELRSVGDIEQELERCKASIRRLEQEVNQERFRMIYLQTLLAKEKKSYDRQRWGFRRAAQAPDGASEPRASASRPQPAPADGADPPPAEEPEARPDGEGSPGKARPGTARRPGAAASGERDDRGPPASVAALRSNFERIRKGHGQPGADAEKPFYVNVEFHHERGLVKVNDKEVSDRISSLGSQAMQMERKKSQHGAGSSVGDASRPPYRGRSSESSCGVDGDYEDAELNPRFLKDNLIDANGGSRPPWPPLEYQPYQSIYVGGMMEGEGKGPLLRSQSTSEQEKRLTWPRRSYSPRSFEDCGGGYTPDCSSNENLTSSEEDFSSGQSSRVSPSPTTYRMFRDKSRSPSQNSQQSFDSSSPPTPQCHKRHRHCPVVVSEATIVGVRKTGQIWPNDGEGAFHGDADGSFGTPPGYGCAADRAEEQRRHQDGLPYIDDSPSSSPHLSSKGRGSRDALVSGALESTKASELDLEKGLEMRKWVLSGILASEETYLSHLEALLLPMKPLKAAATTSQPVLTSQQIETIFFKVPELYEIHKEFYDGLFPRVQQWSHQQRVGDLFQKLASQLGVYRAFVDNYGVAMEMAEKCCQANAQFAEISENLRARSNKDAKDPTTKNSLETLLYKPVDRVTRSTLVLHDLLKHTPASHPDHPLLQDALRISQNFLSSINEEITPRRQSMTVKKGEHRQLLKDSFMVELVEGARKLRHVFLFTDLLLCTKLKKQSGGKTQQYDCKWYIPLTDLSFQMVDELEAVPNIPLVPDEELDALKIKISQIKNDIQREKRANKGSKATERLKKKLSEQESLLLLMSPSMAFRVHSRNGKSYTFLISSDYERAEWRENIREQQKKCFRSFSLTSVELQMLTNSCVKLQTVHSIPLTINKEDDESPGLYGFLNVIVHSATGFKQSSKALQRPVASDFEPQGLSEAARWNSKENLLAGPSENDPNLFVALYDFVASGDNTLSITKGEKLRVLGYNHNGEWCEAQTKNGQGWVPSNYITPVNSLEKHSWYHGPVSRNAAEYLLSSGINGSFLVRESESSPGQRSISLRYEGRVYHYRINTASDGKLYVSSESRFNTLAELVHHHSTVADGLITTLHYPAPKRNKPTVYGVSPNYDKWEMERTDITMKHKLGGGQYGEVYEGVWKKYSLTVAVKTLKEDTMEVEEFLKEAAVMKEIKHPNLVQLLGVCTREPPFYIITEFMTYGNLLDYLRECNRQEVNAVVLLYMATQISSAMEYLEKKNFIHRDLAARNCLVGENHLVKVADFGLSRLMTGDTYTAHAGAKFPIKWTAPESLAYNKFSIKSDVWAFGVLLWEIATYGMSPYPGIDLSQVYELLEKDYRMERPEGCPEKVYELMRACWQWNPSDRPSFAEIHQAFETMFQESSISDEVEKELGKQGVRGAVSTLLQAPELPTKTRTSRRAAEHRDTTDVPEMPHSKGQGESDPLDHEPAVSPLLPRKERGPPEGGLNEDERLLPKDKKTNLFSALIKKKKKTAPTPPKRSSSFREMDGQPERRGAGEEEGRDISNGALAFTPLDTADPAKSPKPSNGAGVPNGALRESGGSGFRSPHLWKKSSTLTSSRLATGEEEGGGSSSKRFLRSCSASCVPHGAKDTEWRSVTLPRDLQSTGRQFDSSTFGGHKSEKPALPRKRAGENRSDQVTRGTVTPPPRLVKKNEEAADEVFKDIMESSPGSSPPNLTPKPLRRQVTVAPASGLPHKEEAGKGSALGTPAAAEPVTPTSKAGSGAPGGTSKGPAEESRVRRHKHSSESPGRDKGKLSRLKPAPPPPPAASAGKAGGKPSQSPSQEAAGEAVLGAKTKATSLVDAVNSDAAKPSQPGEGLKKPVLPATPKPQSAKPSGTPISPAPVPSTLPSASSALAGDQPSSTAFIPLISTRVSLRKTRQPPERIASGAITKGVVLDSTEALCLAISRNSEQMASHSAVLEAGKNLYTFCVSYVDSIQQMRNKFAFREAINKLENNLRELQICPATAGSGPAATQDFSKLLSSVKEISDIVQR
T2 sequence (P98170 252-356): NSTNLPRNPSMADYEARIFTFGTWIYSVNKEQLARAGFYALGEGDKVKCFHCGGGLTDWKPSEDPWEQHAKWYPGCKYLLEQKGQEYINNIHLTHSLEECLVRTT
T3 sequence (Q13489 238-349): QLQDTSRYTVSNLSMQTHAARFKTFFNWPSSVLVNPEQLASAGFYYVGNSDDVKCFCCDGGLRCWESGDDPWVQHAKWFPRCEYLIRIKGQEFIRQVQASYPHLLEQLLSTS

`CN[C@@H](C)C(=O)N[C@H](C(=O)N1CCC[C@H]1c1nc(C(=O)c2cccc(OCCOCCOCCOCC(=O)N3CCN(c4cc(Nc5ncc(C(=O)Nc6c(C)cccc6Cl)s5)nc(C)n4)CC3)c2)cs1)C1CCCCC1` [DAS-IAP]: the results for the “BCR-ABL % of control” value at BCR-ABL protein (time after washout 0 h), on BCR-ABL protein (time after washout 48 h) and on BCR-ABL protein (time after washout 72 h) were 32 % of control, 2 % of control and 2 % of control, respectively. Also, the 50% inhibitory concentration (IC50) at XIAP (BIR3) was 50 nM; at cIAP2 (BIR3), 12 nM; with KU812 cells, 8.97 ± 0.99 nM; with MOLT-4 cells it was 1720 ± 64.9 nM.

Regarding `CN[C@@H](C)C(=O)N(C)[C@H](C(=O)N1CCC[C@H]1c1nc(C(=O)c2cccc(OCCOCCOCCOCC(=O)N3CCN(c4cc(Nc5ncc(C(=O)Nc6c(C)cccc6Cl)s5)nc(C)n4)CC3)c2)cs1)C1CCCCC1` [DAS-meIAP], the entries for the “BCR-ABL % of control” value on BCR-ABL protein (time after washout 0 h), on BCR-ABL protein (time after washout 48 h) and on BCR-ABL protein (time after washout 72 h) were 84 % of control, 80 % of control and 73 % of control, respectively. The IC50 on XIAP (BIR3) was more than 1000 nM; on cIAP2 (BIR3) it was more than 1000 nM; in the assay on KU812 cells, 3.57 ± 0.22 nM; with MOLT-4 cells, 1900 ± 108 nM.

The IC50 is the concentration needed to halve the response being measured.
